≈ marks a conversion by molar mass, not a printed value. Like-named read-outs stand apart in the source and are kept apart here. Blank lines part the entries; values can stand above or below the compound they belong to.
Tests used:
[1] = Cytotoxicity, MTS viability assay; assay type: cell-based, human; settings: Table 6
Experimental: (§1) Candida IC50s were determined by OD600 and fluorescence from vegetative cells and by MTS viability assay in the hyphal state. MICs were determined using a broth microdilution assay under standard CLSI conditions Bacteria strains: E. coli 25922 (EC), S. aureus 27660 (SA), E. faecalis 29212 (EF), P. aeruginosa 10145 (PA), and K. pneumoniae 13883 (KP). Cytotoxicity (EC50) was determined against mouse 3T3 fibroblasts, human transformed liver HepG2 cells, and human oral keratinocyte cell line, OKF6/TERT using an MTS viability assay. Candida IC50s<10 μg/mL, MICs<5 μg/mL and cytotoxicity EC50s>100 μM are indicated in green. MICs>5 μg/mL and cytotoxicity EC50s<100 μM are indicated in red.
(§2) Candida IC50s (CA) were determined by OD600 and fluorescence from vegetative cells. MICs were determined using a broth microdilution assay under standard CLSI conditions Bacteria strains: E. coli 25922 (EC), S. aureus 27660 (SA), E. faecalis 29212 (EF), P. aeruginosa 10145 (PA), and K. pneumoniae 13883 (KP). Cytotoxicity (EC50) was determined against mouse 3T3 fibroblasts and human transformed liver HepG2 cells using an MTS viability assay.
(§3) CLSI conditions Bacteria strains: clinical isolates; yeast strains: C. dubliniensis (NCPF3949), C. glabrata (ATCC 90030), C. krusei (ATCC 6258), C. parapsilosis (ATCC 22019), and C. tropicalis (ATCC 750). Cytotoxicity (EC50) was determined against mouse 3T3 fibroblasts, human transformed liver HepG2 cells, and human oral keratinocyte cell line, OKF6/TERT using an MTS viability assay.

A. niger (AN1) = assay: Anti-Aspergillus screen, CLSI M38-A, visual inhibition of growth; assay type: cell-based; settings: screening concentration 10 μM, 24-48 hours
Experimental: (§4) The in vitro efficacy of a library of compounds was assessed for antifungal activity against A. niger (AN1), A. fumigatus ([…]) and A. flavus (NRRL3357) and compared to that of Itraconazole. For a subset of compounds selected based upon efficacy in the screening study a full MIC profile was conducted. Efficacy of test articles was determined in RPMI 1640 broth with MOPS buffered to pH7.2 in accordance with CLSI guidelines M38-A for Antifungal Susceptibility Testing of Filamentous Fungi. The method was modified by using flat well plates to allow microscopic identification of growth. The final screening concentration of each test article was 10 μM. Assay plates were incubated aerobically at 37° C. for 24-48 hours. Following incubation, plates were assessed visually (by eye and microscopically) for inhibition of growth. Inhibition was recorded at 50%, 80% and 100% inhibition compared to the positive control.

A. fumigatus (A1163) = assay: as above; assay type: cell-based; settings: screening concentration 10 μM, 24-48 hours
Experimental: as §4

A. flavus (NRRL3357) = assay: as above; assay type: cell-based; settings: screening concentration 10 μM, 24-48 hours
Experimental: as §4

C. albicans GDH2346 = assay: Candida IC50, vegetative cells, by OD600 and fluorescence; assay type: cell-based; settings: for IC50: Candida albicans, GDH2346
Experimental: as §1, with “red. Candida IC50s (CA) were determined by OD600 and fluorescence from vegetative cells. MICs were determined using a broth microdilution assay under standard CLSI conditions Bacteria strains: E. coli 25922 (EC), S. aureus 27660 (SA), E. faecalis 29212 (EF), P. aeruginosa 10145 (PA), and K. pneumoniae 13883 (KP). Cytotoxicity (EC50) was determined against mouse 3T3 fibroblasts and human transformed liver HepG2 cells using an MTS viability assay. For determination of anti-Candida IC50s, the method was modified by using RPMI/MOPS buffer pH 6.3 and by addition of FDGlu, a substrate for the yeast enzyme exoglucanase which is secreted during cell growth. This provides a fluorescent readout for cell growth which was used in addition to the traditional optical density measure of growth. OD600 and fluorescence were determined at 24 and 48 hours and the average of all 4 reads was used for the final IC50 determination.” for “red.”

[2] = tested on: C. albicans GDH2346 hyphal biofilm; assay: Candida IC50 in the hyphal state / hyphal biofilm, MTS viability assay; assay type: cell-based; settings: Candida albicans; hyphal state; read-out: IC50 Candida, Hyphal
Experimental: Candida IC50s were determined by OD600 and fluorescence from vegetative cells and by MTS viability assay in the hyphal state. MICs were determined using a broth microdilution assay under standard CLSI conditions Bacteria strains: E. coli 25922 (EC), S. aureus 27660 (SA), E. faecalis 29212 (EF), P. aeruginosa 10145 (PA), and K. pneumoniae 13883 (KP). Cytotoxicity (EC50) was determined against mouse 3T3 fibroblasts, human transformed liver HepG2 cells, and human oral keratinocyte cell line, OKF6/TERT using an MTS viability assay. Candida IC50s<10 μg/mL, MICs<5 μg/mL and cytotoxicity EC50s>100 μM are indicated in green. MICs>5 μg/mL and cytotoxicity EC50s<100 μM are indicated in red. To form the biofilm, yeast were grown in RPMI/MOPS, 0.4% sucrose pH7.4 media supplemented with 10% FBS in tissue culture-treated flat bottom 96 well plates for 48 hours. The filamentous yeast cultures were then vigorously washed to remove any non-filamentous, non-attached yeast. The remaining attached filamentous biofilm yeast were incubated in saline containing serially diluted compounds for 24 hours. The cultures were aspirated to remove compound, rinsed and overlayed with RPMI/MOPS, 0.4% sucrose pH7.4 media. Biofilm viability was measured using a cell proliferation assay (CellTiter96 Aqueous Kit from Promega) and IC50s were determined using Prism GraphPad software (nonlinear fit, Table 3).

[3] = tested on: human transformed liver HepG2 cells; assay: Cytotoxicity, MTS viability assay; assay type: cell-based
Experimental: as §1, §2, §3

mouse 3T3 fibroblasts = assay: Cytotoxicity, MTS viability assay; assay type: cell-based
Experimental: as §1, §2, §3

E. coli 25922 = assay: Bacterial MIC, broth microdilution, CLSI; assay type: cell-based
Experimental: as §1, with “red. Candida IC50s (CA) were determined by OD600 and fluorescence from vegetative cells. MICs were determined using a broth microdilution assay under standard CLSI conditions Bacteria strains: E. coli 25922 (EC), S. aureus 27660 (SA), E. faecalis 29212 (EF), P. aeruginosa 10145 (PA), and K. pneumoniae 13883 (KP). Cytotoxicity (EC50) was determined against mouse 3T3 fibroblasts and human transformed liver HepG2 cells using an MTS viability assay.” for “red.”

P. aeruginosa 10145 = assay: Bacterial MIC, broth microdilution, CLSI; assay type: cell-based
Experimental: as §1, with “red. Candida IC50s (CA) were determined by OD600 and fluorescence from vegetative cells. MICs were determined using a broth microdilution assay under standard CLSI conditions Bacteria strains: E. coli 25922 (EC), S. aureus 27660 (SA), E. faecalis 29212 (EF), P. aeruginosa 10145 (PA), and K. pneumoniae 13883 (KP). Cytotoxicity (EC50) was determined against mouse 3T3 fibroblasts and human transformed liver HepG2 cells using an MTS viability assay.” for “red.”

E. faecalis 29212 = assay: Bacterial MIC, broth microdilution, CLSI; assay type: cell-based
Experimental: as §1, with “red. Candida IC50s (CA) were determined by OD600 and fluorescence from vegetative cells. MICs were determined using a broth microdilution assay under standard CLSI conditions Bacteria strains: E. coli 25922 (EC), S. aureus 27660 (SA), E. faecalis 29212 (EF), P. aeruginosa 10145 (PA), and K. pneumoniae 13883 (KP). Cytotoxicity (EC50) was determined against mouse 3T3 fibroblasts and human transformed liver HepG2 cells using an MTS viability assay.” for “red.”

K. pneumoniae 13883 = assay: Bacterial MIC, broth microdilution, CLSI; assay type: cell-based; settings: Klebsiella pneumoniae
Experimental: as §1, with “red. Candida IC50s (CA) were determined by OD600 and fluorescence from vegetative cells. MICs were determined using a broth microdilution assay under standard CLSI conditions Bacteria strains: E. coli 25922 (EC), S. aureus 27660 (SA), E. faecalis 29212 (EF), P. aeruginosa 10145 (PA), and K. pneumoniae 13883 (KP). Cytotoxicity (EC50) was determined against mouse 3T3 fibroblasts and human transformed liver HepG2 cells using an MTS viability assay.” for “red.”

S. aureus 27660 = assay: Bacterial MIC, broth microdilution, CLSI; assay type: cell-based
Experimental: as §1, with “red. Candida IC50s (CA) were determined by OD600 and fluorescence from vegetative cells. MICs were determined using a broth microdilution assay under standard CLSI conditions Bacteria strains: E. coli 25922 (EC), S. aureus 27660 (SA), E. faecalis 29212 (EF), P. aeruginosa 10145 (PA), and K. pneumoniae 13883 (KP). Cytotoxicity (EC50) was determined against mouse 3T3 fibroblasts and human transformed liver HepG2 cells using an MTS viability assay.” for “red.”

[4] = tested on: human oral keratinocyte cell line, OKF6/TERT; assay: Cytotoxicity, MTS viability assay; assay type: cell-based
Experimental: as §1, §3

[5] = human, HepG2 cells (transformed liver), read-out: Cytotoxicity EC50 Human HepG2
[6] = mouse, 3T3 fibroblasts, read-out: Cytotoxicity EC50 Mouse 3T3
[7] = Table 6, read-out: IC50 C. albicans

IC50 (C. albicans GDH2346; [7]): 2 µg/mL (≈ 2.31 µM)
SMILES: COc1cc(SCCNC(=N)N)c(C(F)(F)F)cc1NC(=O)c1cc(C(=O)Nc2cc(C(F)(F)F)c(SCCNC(=N)N)cc2OC)nc(SCCNC(=N)N)n1 [Cmpd 183]
EC50 [1, 5]: ≥ 1000 µM
EC50 [1, 6]: 478 µM
inhibition at 10 µM (A. niger (AN1)): 100%
inhibition at 10 µM (A. fumigatus (A1163)): 100%
inhibition at 10 µM (A. flavus (NRRL3357)): 100%

IC50 (C. albicans GDH2346; [7]): 3.1 µg/mL (≈ 4.49 µM)
SMILES: COc1ccc(CNC(=N)N)cc1NC(=O)c1cc(C(=O)Nc2cc(CNC(=N)N)ccc2OC)c(OCCC(C)C)cc1OCCC(C)C [Cmpd 184]
EC50 [1, 5]: 155 µM
EC50 [1, 6]: ≥ 1000 µM
inhibition at 10 µM (A. niger (AN1)): 100%
inhibition at 10 µM (A. fumigatus (A1163)): 100%
inhibition at 10 µM (A. flavus (NRRL3357)): 100%

IC50 [2]: 7.5 µg/mL (≈ 13.4 µM)
EC50 (E. coli 25922; Escherichia coli, E. coli 25922): > 50 µg/mL
EC50 (P. aeruginosa 10145; Pseudomonas aeruginosa, P. aeruginosa 10145): > 50 µg/mL
EC50 (E. faecalis 29212; Enterococcus faecalis, E. faecalis 29212): > 50 µg/mL
EC50 (K. pneumoniae 13883): > 50 µg/mL
EC50 (S. aureus 27660; Staphylococcus aureus, S. aureus 27660): > 50 µg/mL
IC50 (C. albicans GDH2346; vegetative cells, read-out: IC50 Candida, Vegetative): 4.1 µg/mL (≈ 7.31 µM)
SMILES: NCCCOc1cccc(-n2cc(-c3ccc4ccc(-c5cn(-c6cccc(OCCCN)c6)nn5)cc4c3)nn2)c1 [Compound 138]
IC50 ([3]; Homo sapiens, HepG2, cytotoxicity): 502 µM
IC50 (mouse 3T3 fibroblasts; Mus musculus, NIH3T3, cytotoxicity): 406 µM
IC50 [4]: 491 µM

EC (MIC) (E. coli 25922): 0.78 µg/mL
PA (MIC) (P. aeruginosa 10145): 6.25 µg/mL
EF (MIC) (E. faecalis 29212): 3.13 µg/mL
SA (MIC) (S. aureus 27660): 0.78 µg/mL
CA (Candida IC50) (C. albicans GDH2346; vegetative cells): 2.11 µg/mL
SMILES: NCCCn1c2cc(-c3ccc(CCN)c(CCN)c3)ccc2c2ccc(-c3ccc(CCN)c(CCN)c3)cc21 [Compound 159]
EC50 [3]: 64 µM
EC50 (mouse 3T3 fibroblasts): 61 µM
